Consider eight compounds from patent publication US20040029130A1, “Drug screening systems and assays” (priority 2000, published 2004).

Experiment [1] has as its system non-homologous end-joining (NHEJ) of DNA by PC-C (Ku70/80, DNA-PKcs, XRCC4, DNA ligase IV). Briefly: DNA end-joining (NHEJ) complementation assay with HeLa fraction PC-C. To be noted: for ability to stimulate DNA end-joining (NHEJ) by PC-C: FIG. 4C, 6A, 8; for stimulation of NHEJ by PC-C relative to IP6: FIG. 8; for concentration that saturates the NHEJ system / Kd: components derived from humans; for Kd: crude estimate, read-out: estimate of the Kd in the NHEJ system. It is filed as biochemical, human. On the procedure: Fraction PC-C was dialyzed for 2 hours against L buffer (20 mM Tris-HCl pH 8.0, 25 mM KOAc, 0.5 mM EDTA, 10% glycerol, 1 mM DTT) and stored at −80° C.
End joining reactions (10 μl) were carried out in 50 mM HEPES pH 8.0, 40 mM KOAc, 0.5 mM Mg(OAc)2, 1 mM ATP, 1 mM DTT, 0.1 mg/ml BSA, contained 2-3 μl (3-5 μg) of PC-C and HindIII-linearized 5′-^32P-labeled pDEA7Z DNA (10 ng). Incubation was for 1 hour at 37° C. ^32P-labeled DNA products were deproteinized and analyzed by electrophoresis through 0.6% agarose gels followed by autoradiography. Quantification of joining efficiency was carried out by phosphorimaging and the data are presented as (% total ends-joinedsample)−(% total ends-joinedPC-C) unless otherwise stated. For assays of inositol phosphates, aqueous solutions were added directly to the end-joining reactions. For the screening of column fractions; 0.5-1 μl of diluted (in L buffer) or undiluted column fractions were added

The target of experiment [2] is T1, DNA-PK (Homo sapiens, UniProt P12956+P13010).
T1 construct: purchased Promega
T1 sequence (P12956 2-609 limits assumed): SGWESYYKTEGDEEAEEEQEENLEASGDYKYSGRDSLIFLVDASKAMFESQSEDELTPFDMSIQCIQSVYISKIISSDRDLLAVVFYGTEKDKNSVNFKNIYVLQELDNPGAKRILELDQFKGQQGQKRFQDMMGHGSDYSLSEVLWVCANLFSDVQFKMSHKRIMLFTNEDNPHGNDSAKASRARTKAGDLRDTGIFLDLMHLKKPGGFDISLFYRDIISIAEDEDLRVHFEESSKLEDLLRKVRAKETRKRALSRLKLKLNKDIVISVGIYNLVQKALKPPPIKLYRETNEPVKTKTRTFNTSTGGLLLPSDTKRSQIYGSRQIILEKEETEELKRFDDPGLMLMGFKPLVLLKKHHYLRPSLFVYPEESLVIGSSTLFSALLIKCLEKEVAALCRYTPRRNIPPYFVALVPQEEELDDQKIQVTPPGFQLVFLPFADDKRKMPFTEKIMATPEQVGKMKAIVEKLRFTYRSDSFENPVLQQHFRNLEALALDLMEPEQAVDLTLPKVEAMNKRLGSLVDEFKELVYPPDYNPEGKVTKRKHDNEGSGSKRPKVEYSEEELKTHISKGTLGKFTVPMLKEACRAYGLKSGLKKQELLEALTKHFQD
T1 sequence (P13010 2-732 limits assumed): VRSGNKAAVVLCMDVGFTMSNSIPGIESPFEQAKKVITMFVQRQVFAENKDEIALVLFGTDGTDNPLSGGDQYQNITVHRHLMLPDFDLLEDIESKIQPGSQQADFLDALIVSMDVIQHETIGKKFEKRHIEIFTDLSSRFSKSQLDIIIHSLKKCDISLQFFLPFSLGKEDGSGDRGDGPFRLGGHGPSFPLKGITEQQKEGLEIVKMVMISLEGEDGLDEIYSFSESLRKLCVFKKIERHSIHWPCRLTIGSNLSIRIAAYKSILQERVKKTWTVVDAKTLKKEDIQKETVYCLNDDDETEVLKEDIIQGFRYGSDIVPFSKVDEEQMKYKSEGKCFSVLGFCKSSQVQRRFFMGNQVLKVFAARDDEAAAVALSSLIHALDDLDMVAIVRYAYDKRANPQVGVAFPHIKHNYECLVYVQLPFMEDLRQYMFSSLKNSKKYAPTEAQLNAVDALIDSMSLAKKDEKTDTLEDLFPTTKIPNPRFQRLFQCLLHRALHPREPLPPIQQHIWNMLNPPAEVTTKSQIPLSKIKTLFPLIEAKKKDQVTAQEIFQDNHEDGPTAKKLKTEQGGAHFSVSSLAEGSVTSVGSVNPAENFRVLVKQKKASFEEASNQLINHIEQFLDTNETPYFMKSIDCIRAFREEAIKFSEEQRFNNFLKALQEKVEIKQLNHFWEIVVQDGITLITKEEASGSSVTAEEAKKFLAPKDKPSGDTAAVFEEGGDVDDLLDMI
The experiment in a line: Gel filtration analysis of 3H-inositol phosphate binding by DNA-PK. To be noted: for binding by DNA-PK: gel filtration, 100 nM 3H-ligand, FIG. 7. The protocol: Binding reactions (55 μl) were carried out in 25 mM HEPES pH 7.5, 50 mM KCl, 10 mM MgCl2, 1 mM DTT, 10% glycerol, 0.1% NP-40 with 5000 units of DNA-PK (Promega) or 1.8 mg/ml of protein size standards for gel filtration (BioRad) and 100 nM ^3H-IP6 or ^3H-IP3 at 4° C. for 30 min. Complexes were resolved on a Superose 12 PC3.2/30 column run in 50 mM HEPES pH 8.0, […], 0.1M KCl, 10% glycerol, 1 mM DTT at 40 μl/min. 50 μl fractions were collected; 20 μl samples of each fraction were used for ^3H scintilation counting (10 min/sample in 5 ml EcoscintA) and 10 μl were assayed for DNA-PK kinase activity using the SignaTECT DNA-PK assay system (Promega).
The specificity of IP6 recognition by DNA-PK was assessed by competition trials using inositol hexasulphate (IS6). […] Addition of DNA-PK results in an increase in the mobility of the ^3H-IP6 indicating complex formation. IS6, presented in 10- and 100-fold molar excess have no effect on the amount of ^3H-IP6 bound by DNA-PK.
For orientation: SEC sorts molecules by how far they enter the pores of the column.

In experiment [3] the target is T2, Ku 70/80 heterodimer (Homo sapiens, UniProt P12956+P13010).
T2 construct: made in house
T2 sequence (P12956 whole entry): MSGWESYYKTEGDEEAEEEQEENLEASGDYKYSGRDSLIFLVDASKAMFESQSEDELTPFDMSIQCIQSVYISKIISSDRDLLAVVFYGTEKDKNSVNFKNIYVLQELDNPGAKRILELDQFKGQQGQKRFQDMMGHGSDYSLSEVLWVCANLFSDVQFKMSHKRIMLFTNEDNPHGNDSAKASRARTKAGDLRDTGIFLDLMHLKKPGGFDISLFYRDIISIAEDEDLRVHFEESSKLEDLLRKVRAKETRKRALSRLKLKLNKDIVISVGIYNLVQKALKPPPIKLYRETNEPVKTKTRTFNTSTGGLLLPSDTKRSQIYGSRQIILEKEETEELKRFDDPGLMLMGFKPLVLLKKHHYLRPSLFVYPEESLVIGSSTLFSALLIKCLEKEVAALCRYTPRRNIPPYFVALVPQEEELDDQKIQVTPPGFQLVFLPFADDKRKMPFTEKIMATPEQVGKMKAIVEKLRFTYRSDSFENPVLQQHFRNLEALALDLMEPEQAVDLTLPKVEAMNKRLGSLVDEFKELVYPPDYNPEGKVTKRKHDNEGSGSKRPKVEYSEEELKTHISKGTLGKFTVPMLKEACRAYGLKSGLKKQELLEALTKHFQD
T2 sequence (P13010 whole entry): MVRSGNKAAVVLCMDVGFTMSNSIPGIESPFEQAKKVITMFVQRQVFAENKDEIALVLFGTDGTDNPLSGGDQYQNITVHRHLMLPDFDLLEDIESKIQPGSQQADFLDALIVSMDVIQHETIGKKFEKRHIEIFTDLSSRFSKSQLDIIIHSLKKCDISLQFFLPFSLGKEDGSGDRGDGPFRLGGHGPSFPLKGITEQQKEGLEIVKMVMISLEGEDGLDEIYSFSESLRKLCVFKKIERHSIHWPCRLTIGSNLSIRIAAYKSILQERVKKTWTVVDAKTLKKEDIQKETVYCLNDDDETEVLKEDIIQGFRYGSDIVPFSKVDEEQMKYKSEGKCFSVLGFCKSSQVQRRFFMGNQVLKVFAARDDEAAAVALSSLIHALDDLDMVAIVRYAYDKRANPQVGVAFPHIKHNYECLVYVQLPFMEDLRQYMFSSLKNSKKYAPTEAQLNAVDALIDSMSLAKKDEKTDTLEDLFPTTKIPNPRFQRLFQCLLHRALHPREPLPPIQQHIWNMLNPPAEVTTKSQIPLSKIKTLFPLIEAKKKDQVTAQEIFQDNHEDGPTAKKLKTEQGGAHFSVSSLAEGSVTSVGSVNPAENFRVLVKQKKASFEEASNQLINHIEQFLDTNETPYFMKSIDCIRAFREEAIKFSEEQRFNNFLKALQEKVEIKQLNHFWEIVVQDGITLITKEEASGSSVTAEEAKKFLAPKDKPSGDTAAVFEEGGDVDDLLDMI
Briefly: Gel filtration binding and competition analysis with purified Ku 70/80. To be noted: for binding by Ku 70/80 heterodimer: gel filtration, FIG. 10-12; for loss in 3H-IP6 binding by Ku (competition): one molar equivalent of competitor. On the procedure: (§1) Superdex 200 gel filtration, 50 μl fractions, scint. counting 20 μl/fraction 100 nM ^3H-IP6, 100 nM Ku, 100 nM DNA ([…]), 100 nM PKcs. Running buffer. 50 mM HEPES, pH 8.0, 40 mM KOAc, 10% Glycerol, 0.1 M KCl, 1 mM DTT.
(§2) Ku 70/80 and DNA-PKcs were purified to homogeneity and used to examine the binding of IP6 by DNA-PK ^3H-IP6 was used in these binding experiments and the curves presented in FIG. 10 represent the distribution of ^3H-IP6 along a gel filtration column under various conditions. ^3H-IP6 observed in a peak below 17 kD represents unbound ^3H-IP6. In the presence of purified Ku 70/80 (±DNA-PKcs) ^3H-IP6 elutes early from the column near the 150 MW point. […] It is believed that DNA-PK assembles on DNA and that in the absence of DNA that Ku and DNA-PKcs, are separate in solution. The addition of DNA to the Ku-^3H-IP6 complex results in a shift in the elution profile from the gel filtration column—the peak is broader (possibly owing to the mobility of the DNA) and has an earlier start point. […] Finally, the addition of DNA-PKcs, to the Ku-IP6DNA complex results in an additional increase in mobility along the gel filtration column. The species appears very large—near 670 kD—which is consistent with it containing Ku 70/80, ^3H-IP6, DNA-PKcs and DNA.
The specificity of IP6 binding by Ku was examined by competition analysis (FIG. 13) using IP3, IP6 and IP7. […] These findings may be extended to postulate that while IP6 is bound by Ku, that the stimulatory effect of IP6 on NHEJ probably results from additional interactions that may be regulated by formation of the IP6-Ku complex.

Experiment [4] addresses T3, T4 DNA ligase (Enterobacteria phage T4, UniProt P00970).
T3 construct: purchased NEB
T3 sequence (P00970 1-487): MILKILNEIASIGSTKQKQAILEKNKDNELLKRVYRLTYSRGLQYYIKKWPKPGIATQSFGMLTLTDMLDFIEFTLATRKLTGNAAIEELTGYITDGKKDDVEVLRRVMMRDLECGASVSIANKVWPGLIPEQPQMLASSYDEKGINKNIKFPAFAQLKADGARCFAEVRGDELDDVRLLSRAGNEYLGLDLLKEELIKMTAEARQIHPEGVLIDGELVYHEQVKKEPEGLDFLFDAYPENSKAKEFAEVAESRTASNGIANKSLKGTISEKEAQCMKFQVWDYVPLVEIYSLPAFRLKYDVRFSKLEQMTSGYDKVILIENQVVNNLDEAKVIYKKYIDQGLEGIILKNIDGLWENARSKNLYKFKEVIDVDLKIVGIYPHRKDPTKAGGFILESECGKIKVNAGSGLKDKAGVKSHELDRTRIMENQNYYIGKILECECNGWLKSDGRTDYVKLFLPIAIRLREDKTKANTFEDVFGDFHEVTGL
The experiment in a line: T4 DNA ligation assay. To be noted: 2 μM IP6, T4 DNA ligase 0.1 u/μl, FIG. 6B. It is filed as biochemical. On the procedure: Reactions (10 μl) containing T4 DNA ligase (NEB) were carried out in 1×T4 DNA ligase buffer (NEB) at 25° C. in the presence and absence of inositol phosphates. Reactions were stopped, deproteinized and the products analyzed by agarose gel electrophoresis.

Experiment [5] deals with phosphatases. To be noted: cited from earlier work.
For experiment [6], the target named is T4, DNA-PKcs (Homo sapiens, UniProt P78527).
T4 construct: made in house
The experiment in a line: Gel filtration binding with purified DNA-PKcs. To be noted: absence of DNA, FIG. 10-11. On the procedure:
as §1, §2

The subject of experiment [7] is skin cancer development. To be noted: mice, given orally; cited from earlier work.

Entries after “also recorded” stand apart in the source; their conditions may differ.

For `O=P(O)(O)O[C@H]1[C@@H](OP(=O)(O)O)[C@H](OP(=O)(O)O)[C@@H](OP(=O)(O)OP(=O)(O)O)[C@H](OP(=O)(O)O)[C@H]1OP(=O)(O)O` [IP7 pp5, myo-5-diphosphoinositol 1,2,3,4,6-pentakisphosphate], in experiment [1], the “ability to stimulate DNA end-joining (NHEJ) by PC-C” value (“ability” for short) is “do stimulate NHEJ by PC-C” and the “stimulation of NHEJ by PC-C relative to IP6” value is recorded as “approximately 10 fold”.
On to `O=P(O)(O)OC1[C@H](O)[C@H](OP(=O)(O)O)C(OP(=O)(O)O)[C@H](OP(=O)(O)O)[C@H]1O` (stereo partly drawn) [IP4, D-myo-inositol 1,3,4,5-tetrakisphosphate], for which the “ability” value in experiment [1] is “able to stimulate end-joining, but the efficiency of this stimulation was reduced relative to IP6; also recorded: able to stimulate end-joining, though to a lesser extent; also recorded: stimulate NHEJ of DNA”.
Take myo-inositol 1,4,5-trisphosphate [IP3]: the figures for the “binding by DNA-PK” value in experiment [2] and in experiment [2] (listed as 3H-IP3) were “not” and “not altered by the presence of DNA-PK”, respectively. In experiment [3] (3-fold molar excess of competitor, FIG. 13), the “effect on 3H-IP6 binding by Ku (competition)” value was “no effect”. Moreover, the “ability” value in experiment [1] is “inhibitory; also recorded: does not stimulate NHEJ”; in experiment [1] (listed as myo-inositol 1,4,5-trisphosphate), “inhibit end-joining”.
On to `O=P(O)(O)OC1C(OP(=O)(O)O)C(OP(=O)(O)O)C(OP(=O)(O)O)C(OP(=O)(O)O)C1OP(=O)(O)O` (stereo not drawn) [IP6, myo-inositol 1,2,3,4,5,6-hexakisphosphate], for which the “effect on efficiency of ligation by T4 DNA ligase” value in experiment [4] is on record as “unaffected; also recorded: no effect”. Further, in experiment [2], the “binding by DNA-PK” value is reported as “capable of binding; also recorded: binds”. Besides, the “binding by Ku 70/80 heterodimer” value in experiment [3] is reported as “bind”. In addition, in experiment [3] (listed as 3H-IP6), the “binding by Ku 70/80 heterodimer” value is listed as “binds”. Further, the “loss in 3H-IP6 binding by Ku (competition)” value in experiment [3] (FIG. 13) is about 50%. Also, the “concentration at which it functions as a phosphatase inhibitor” value in experiment [5] is at least 10 µM. In addition, in experiment [1], the “low concentration at which end-joining can be stimulated (discussion)” value stood at 100 µM, the “ability” value is given as “most effective inositol phosphate compound of those tested; also recorded: stimulated end-joining by PC-C; also recorded: stimulate NHEJ of DNA”, the “concentration that saturates the NHEJ system” value was found to be 10 µM and the dissociation constant (Kd) was about 1 µM. Besides, in experiment [1] (FIG. 4B), the “concentration of maximal stimulation of end-joining by PC-C” value stood at 1 µM. In experiment [1] (FIG. 4B, commercially available IP6), the “concentration at which end-joining by PC-C is stimulated” value is on record as about 100 nM. Also, the “interaction with DNA-PKcs” value in experiment [6] is given as “does not interact”. The “effect on skin cancer development” value in experiment [7] was “reduces initiation of skin cancer development but not its promotion”.
In the case of `O=P(O)(O)O[C@@H]1[C@@H](OP(=O)(O)O)[C@H](OP(=O)(O)O)[C@H](O)[C@H](OP(=O)(O)O)[C@H]1OP(=O)(O)O` [IP5, myo-inositol 1,3,4,5,6-pentakisphosphate], the “ability” value in experiment [1] is reported as “able to stimulate end-joining, but the efficiency of this stimulation was reduced relative to IP6; also recorded: able to stimulate end-joining, though to a lesser extent; also recorded: stimulate NHEJ of DNA”.
For the compound `O=P(O)(O)OC1[C@@H](OP(=O)(O)O)[C@H](OP(=O)(O)O)C(OP(=O)(O)OP(=O)(O)O)[C@H](OP(=O)(O)O)[C@H]1OP(=O)(O)O` (stereo partly drawn) [IP7, diphosphoinositol pentakisphosphate], the “binding by DNA-PK” value in experiment [2] was “binds”. In addition, the “binding by Ku 70/80 heterodimer” value in experiment [3] was “bind”. The “loss in 3H-IP6 binding by Ku (competition)” value in experiment [3] (FIG. 13) is on record as about 50%. Moreover, in experiment [1], the “stimulation of NHEJ by PC-C relative to IP6” value was found to be 10 fold, the “concentration that saturates the NHEJ system” value turned out to be 1 µM and the dissociation constant Kd was about 100 µM.
Take `O=P(O)(O)O[C@H]1[C@@H](OP(=O)(O)O)[C@@H](OP(=O)(O)O)[C@H](OP(=O)(O)OP(=O)(O)O)[C@@H](OP(=O)(O)O)[C@@H]1OP(=O)(O)O` [IP7-pp6, myo-6-diphosphoinositol 1,2,3,4,5-pentakisphosphate]: in experiment [1], the “ability” value was “do stimulate NHEJ by PC-C” and the “stimulation of NHEJ by PC-C relative to IP6” value is “approximately 10 fold”.
Regarding `O=S(=O)(O)OC1C(OS(=O)(=O)O)C(OS(=O)(=O)O)C(OS(=O)(=O)O)C(OS(=O)(=O)O)C1OS(=O)(=O)O` (stereo not drawn) [IS6, inositol hexasulphate], the “effect on the amount of 3H-IP6 bound by DNA-PK (competition)” value in experiment [2] (10- and 100-fold molar excess, FIG. 9) is given as “does not compete; also recorded: no effect”. Besides, the “ability” value in experiment [1] is “unable to stimulate end-joining”.

By Kd is commonly meant the constant that tells how readily two partners part at equilibrium.
